# Experiments:
# [1] = test system: subjects receiving hemodialysis, previously maintained on epoetin alfa; conditions: human, in vivo
# Procedure: (§4) The primary endpoint was mean hemoglobin (Hb) change from pre-baseline average to midtrial (Weeks 7-8) and end-of trial (Weeks 15-16) and was analyzed using available data (no imputation).
# [2] = test system: adult patients with NDD-CKD and anemia, actively treated with an ESA; assay: Phase 3 ESA-treated NDD-CKD (Conversion) trial, vadadustat vs darbepoetin alfa; format: in vivo, human; conditions: Conversion study
# Procedure: (§1) Two global, Phase 3, randomized, open-label, active-controlled, sponsor-blind clinical trials were conducted to evaluate safety and efficacy of vadadustat (Compound 1) vs the ESA darbepoetin alfa in adult patients with NDD-CKD and anemia. Patients recruited into the ESA-untreated NDD-CKD trial (N=1761) had hemoglobin <10 g/dL and were not previously being treated with an ESA. Patients recruited into the ESA-treated NDD-CKD trial (N=1750) had hemoglobin ranges of 8-11 g/dL (US) or 9-12 g/dL (non-US) and were actively treated with an ESA for anemia associated with CKD. Trial periods in both trials included 1) correction/conversion (weeks 0-23); 2) maintenance (weeks 24-52); 3) long-term treatment (week 53 to end of treatment); and 4) safety follow-up (end-of-treatment to 4 weeks later). The primary safety endpoint was time to first adjudicated major adverse cardiovascular event, defined as all-cause mortality, non-fatal myocardial infarction or non-fatal stroke pooled across both trials. The primary efficacy endpoint in each trial was mean change in hemoglobin from baseline to primary evaluation period (weeks 24-36) comparing vadadustat vs darbepoetin alfa treatment arms. Demographics and baseline characteristics were similar among patients in both trials, and typical for a large proportion of the NDD-CKD population. These trials helped define the safety and efficacy of vadadustat, an oral hypoxia-inducible factor prolyl hydroxylase inhibitor for management of anemia associated with NDD-CKD.
# (§2) Two randomized, Phase 3, open-label, active-controlled clinical trials were conducted to evaluate the safety and efficacy of oral vadadustat versus injectable darbepoetin alfa: Correction (previously ESA-untreated) and Conversion (previously ESA-treated). Target enrollment for each was approximately 1850 patients recruited at approximately 390 and 480 sites in North America, Latin America, Europe, and the Asia Pacific for the ESA-untreated NDD-CKD trial and the ESA-treated NDD-CKD trial, respectively.
# (§3) Trial Populations. Each trial recruited adults (>18 years of age) with NDD-CKD (estimated glomerular filtration rate 60 mL/min/1.73 m^2). […] In addition to the hemoglobin entry criteria, all patients were required to have serum ferritin ≥100 ng/mL and transferrin saturation 20% at screening in order to be randomized. In the ESA-untreated NDD-CKD trial, ESA use was permitted during screening, as per standard of care; however, patients were excluded if they received any ESA within 8 weeks of randomization. In the ESA-treated NDD-CKD trial, patients were actively maintained on ESA therapy, with at least one dose received within 6 weeks before or during screening. […]
# [3] = test system: subjects receiving hemodialysis, previously maintained on epoetin alfa; assay: Open-label Phase 2 trial in subjects receiving hemodialysis previously maintained on epoetin alfa
# Procedure: as §4
# [4] = test system: adult patients with NDD-CKD and anemia, not previously treated with an ESA; assay: Phase 3 ESA-untreated NDD-CKD (Correction) trial, vadadustat vs darbepoetin alfa; format: in vivo, human; conditions: Correction study
# Procedure: as §1, §2, §3
# [5] = test system: stage 3, 4, or 5 CKD patients; assay: Phase 2a clinical trials in stage 3, 4, or 5 CKD patients (iron parameters vs placebo); format: in vivo, human
# Procedure: In certain embodiments, unsaturated iron binding capacity (UIBC) may be determined by adding serum to an alkaline buffer/reductant solution containing a known concentration of iron to saturate the available binding sites on transferrin. The Ferrozine chromogen reacts only with the Fe^2+; therefore, an iron reductant is added to insure that all iron is present in the ferrous state. The excess unbound divalent iron reacts with Ferrozine chromogen to form a magenta complex, which is measure spectrophotometrically. The unsaturated iron binding capacity (UIBC) is equal to the difference measured in the concentrations of the added iron solution and the excess unbound iron. Serum TIBC is equal to total serum iron plus UIBC and may therefore be calculated using the results of the UIBC and serum iron determinations.
# In certain embodiments, serum iron may be determined using a test based on the FerroZine method without deproteinization. Specimens are analyzed on the Roche Modular Instrument utilizing Roche Diagnostics Reagents. Under acidic conditions, iron is liberated from transferrin. The detergent clarifies lipemic samples. Ascorbate reduces the released Fe3+ ions to Fe2+ ions, which then react with FerroZine to form a colored complex. The color intensity is directly proportional to the iron concentration and can be measured photometrically.
# [6] = weeks 24 to 36, non-inferiority margin −0.75 g/dL
smiles,measurement,setting,value
"O=C(O)CNC(=O)c1ncc(-c2cccc(Cl)c2)cc1O [Compound 1, Vadadustat]",deaths during the study,[1],No deaths
same,mean (SD) Hb level,[2]; week 24 to week 36,10.77 (0.98) g/dL
same,mean (SD) Hb level,[2]; week 40 to week 52,10.80 (1.04) g/dL
same,least square mean difference in Hb (vadadustat vs darbepoetin alfa),[2]; [6],-0.01 g/dL
same,least square mean difference in Hb (vadadustat vs darbepoetin alfa),[2]; weeks 40 to 52,0.00 g/dL
same,subjects with an Hb excursion>13 g/dL,[3]; all cohorts,one
same,mean change in Hb from pre-baseline average,"[3]; all dose cohorts (300 mg QD, 450 mg QD, 450 mg TIW), Weeks 7-8 and 15-16",no statistically significant mean change
same,serious AEs attributed to study drug,"[3]; human, in vivo",No serious AEs
same,diarrhea,[3]; overall,10.6%
same,nausea,[3]; overall,11.7%
same,subjects who experienced an adverse event (AE),[3]; overall,83%
same,vomiting,[3]; overall,9.6%
same,mean (SD) Hb level,[4]; week 24 to week 36,10.39 (0.99) g/dL
same,mean (SD) Hb level,[4]; week 40 to week 52,10.48 (1.05) g/dL
same,least square mean difference in Hb (vadadustat vs darbepoetin alfa),[4]; [6],0.05 g/dL
same,least square mean difference in Hb (vadadustat vs darbepoetin alfa),[4]; weeks 40 to 52,0.04 g/dL
same,serum iron levels,[5]; 6 weeks post administration,not associated with an increase in serum iron levels
same,total iron binding capacity (TIBC) levels,"[5]; 6 weeks post administration, compared to placebo treated patients",increase
same,transferrin saturation (TSAT),[5]; dose-related,decrease

# Reference: patent US20230285374A1, “THERAPEUTIC METHODS USING VADADUSTAT” (Akebia Therapeutics, Inc., priority 2019, published 2023)
